Assay results reported in ChEMBL document CHEMBL1201862, “PubChem BioAssay data set” (2004).
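Compound exposure: 48 hours, 5 concentrations, 96-well plates. GI50 marks 50% less growth.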 Calls of active or inactive are those of the source. No stated cut-off is given here; in the data, active = GI50 up to about 1.1 µM and inactive = higher.

Columns and labels:
Assay in all cases: growth of human tumour cells (NCI), 48 h
[1] = test system: 786-0
[2] = test system: A549
[3] = test system: BT-549
[4] = test system: CAKI-1
[5] = test system: COLO 205
[6] = test system: HCT-15
[7] = test system: HOP-92
[8] = test system: IGROV-1
[9] = test system: MCF7
[10] = test system: MOLT-4
[11] = test system: NCI-H522
[12] = test system: NCI/ADR-RES
[13] = test system: OVCAR-8
[14] = test system: PC-3
[15] = test system: SN12C
[16] = test system: SW-620
[17] = test system: T47D
[18] = test system: U-251
[19] = test system: UO-31
[20] = test system: RPMI-8226

| SMILES | GI50 [1] | GI50 [2] | GI50 [3] | GI50 [4] | GI50 [5] | GI50 [6] [µM] | GI50 [7] | GI50 [8] | GI50 [9] | GI50 [10] | GI50 [11] | GI50 [12] | GI50 [13] | GI50 [14] | GI50 [15] | GI50 [16] | GI50 [17] | GI50 [18] | GI50 [19] | GI50 [20] |
| --- | --- | --- | --- | --- | --- | --- | --- | --- | --- | --- | --- | --- | --- | --- | --- | --- | --- | --- | --- | --- |
| Cc1cc(C)c2c(n1)S(=O)(=O)N(CCCN1CCN(c3cccc(C(F)(F)F)c3)CC1)C(C(=O)c1ccccc1)=C2O | 4.48 µM (inactive) | 4.55 µM (inactive) | 16 µM (inactive) | 2.79 µM (inactive) | 3.31 µM (inactive) | 4.62 | 5.19 µM (inactive) | 5.66 µM (inactive) | 7.13 µM (inactive) | 2.67 µM (inactive) | 4 µM (inactive) | 3.21 µM (inactive) | 5.66 µM (inactive) | 9.82 µM (inactive) | 4.55 µM (inactive) | 4.13 µM (inactive) | 13.1 µM (inactive) | 5.4 µM (inactive) | 5.42 µM (inactive) | – |
| CCCO[C@@H]1[C@@H](OC(C)=O)[C@@H](OC(C)=O)C(C)(C)/C=C/[C@H](C)C(=O)[C@@]2(OC(C)=O)C[C@@](C)(OC(C)=O)[C@H](OC(C)=O)[C@@H]2[C@H]2OC(=O)CC[C@@]12OC(=O)c1ccccc1 | – | – | 22.9 µM (inactive) | 17.7 µM (inactive) | 6.97 µM (inactive) | > 25 | > 25 µM (inactive) | > 25 µM (inactive) | 23.6 µM (inactive) | 5.13 µM (inactive) | 0.774 µM (active) | > 25 µM (inactive) | > 25 µM (inactive) | 20.4 µM (inactive) | > 25 µM (inactive) | 23.6 µM (inactive) | > 25 µM (inactive) | > 25 µM (inactive) | > 25 µM (inactive) | – |
| C/C=C1\NC(=O)[C@H]2CSSCCC=C[C@H](CC(=O)N[C@H](C(C)C)C(=O)N2)OC(=O)[C@H](C(C)C)NC1=O | – | 0.000148 µM (active) | – | 0.00159 µM (active) | – | 0.0331 | 0.000366 µM (active) | – | 2.22e-05 µM (active) | 0.000134 µM (active) | – | 0.0619 µM (active) | 0.000255 µM (active) | 4.88e-05 µM (active) | 0.000174 µM (active) | 0.000153 µM (active) | 4.39e-05 µM (active) | – | 0.00731 µM (active) | 0.000147 µM (active) |
| CC1=NN(C(=O)c2ccc(Cl)cc2)C(=O)C1/N=N/c1ccc(S(=O)(=O)Nc2ncccn2)cc1 (configuration not stated) | > 100 µM (inactive) | > 100 µM (inactive) | > 100 µM (inactive) | > 100 µM (inactive) | > 100 µM (inactive) | > 100 | < 0.01 µM (active) | > 100 µM (inactive) | > 100 µM (inactive) | > 100 µM (inactive) | > 100 µM (inactive) | > 100 µM (inactive) | > 100 µM (inactive) | 0.217 µM (active) | > 100 µM (inactive) | > 100 µM (inactive) | > 100 µM (inactive) | > 100 µM (inactive) | > 100 µM (inactive) | – |
| NC(=O)C1CCN(Cc2c(Cl)c(Cl)c(CN3CCC(C(N)=O)CC3)c(Cl)c2Cl)CC1 | 77.1 µM (inactive) | > 100 µM (inactive) | > 100 µM (inactive) | > 100 µM (inactive) | > 100 µM (inactive) | > 100 | 67.1 µM (inactive) | – | > 100 µM (inactive) | > 100 µM (inactive) | > 100 µM (inactive) | > 100 µM (inactive) | > 100 µM (inactive) | > 100 µM (inactive) | > 100 µM (inactive) | > 100 µM (inactive) | > 100 µM (inactive) | 34.8 µM (inactive) | 63.5 µM (inactive) | > 100 µM (inactive) |
| CO/N=C1/c2sccc2[C@H](NC(=O)CNC(=O)OC(C)(C)C)[C@@H]1O | – | > 100 µM (inactive) | > 100 µM (inactive) | > 100 µM (inactive) | > 100 µM (inactive) | > 100 | > 100 µM (inactive) | > 100 µM (inactive) | > 100 µM (inactive) | > 100 µM (inactive) | – | > 100 µM (inactive) | > 100 µM (inactive) | > 100 µM (inactive) | > 100 µM (inactive) | > 100 µM (inactive) | > 100 µM (inactive) | > 100 µM (inactive) | > 100 µM (inactive) | – |
| O=C(c1ccc(Cl)cc1)N(C(=O)N1CCC(c2ccccc2)CC1)c1ccccc1 | 70.3 µM (inactive) | – | 19.5 µM (inactive) | 54.1 µM (inactive) | 33 µM (inactive) | 15 | – | 17.9 µM (inactive) | 39.4 µM (inactive) | 21.8 µM (inactive) | – | 16.6 µM (inactive) | 33.8 µM (inactive) | 6.4 µM (inactive) | 99.5 µM (inactive) | 92 µM (inactive) | 11.1 µM (inactive) | 39.5 µM (inactive) | 12.1 µM (inactive) | 13.7 µM (inactive) |
